Structures are written as SMILES. Where a SMILES comes first, the peptide text is derived from it. Bridges are numbered along the chain shown (N, C = ends). [ ]: non-standard residue; d: D form. 2Nal = N[C@@H](Cc1ccc2ccccc2c1)C(=O)O; Cit = NC(=O)NCCC[C@H](N)C(=O)O

The assay has as its system HIV-1 (IIIB) strain. Put plainly: Anti-HIV activity: inhibition of MT-4 cell death by HIV infection (MTT method). The format is cell-based. Particulars: MT-4 CD4+ T cells infected by HIV-1 (IIIB), 37° C., 5 days, MTT; average of at least three measurements; read-out: EC50 (concentration where MT-4 cell death by HIV infection is inhibited by 50%). As for the experimental part:
HIV-1 (IIIB) strain obtained from MOLT/HIV-1 (IIIB) cell previously infected by HIV-1 was used. The polypeptide of the present invention was added to MT-4 CD4^+ T cells infected by HIV in various kinds of concentrations, and a number of living cells after culturing at 37° C. for 5 days was determined by using a 3′-(4,5-dimethylthiazol-2-yl)-2,5-diphenyltetrazolinium bromide (MTT) method. Anti-HIV activity is shown by a concentration (EC50 value), where MT-4 cell death by HIV infection is inhibited by 50%. Cytotoxicity of the peptide according to the present invention was shown by a 50% survival concentration (Test I: CC50 value) by culturing virus-uninfected MT-4 cells with the polypeptide according to the present invention in various concentrations, and determining a number of living cells by the MTT method. Moreover, a number of living cells of human peripheral blood mononuclear cells (monocyte) (PBMC) was determined by trypan blue dyeing method, and shown by a 50% survival concentration (Test II: CC50 value). Respective ratios of the CC50 value and the EC50 value were shown as a selective index (SI). Obtained values were summarized in Table 3 using the conventionally known polypeptides T134 and T140, and an anti-HIV compound: 3′-azido-2′,3′-dideoxythymidine (AZT) used as a medicine as a control anti-HIV agent.
In the case of `N=C(N)NCCC[C@H](NC(=O)[C@@H]1CSSC[C@H](NC(=O)[C@H](Cc2ccc3ccccc3c2)NC(=O)[C@H](CCCNC(=N)N)NC(=O)[C@@H](N)CCCNC(=N)N)C(=O)N[C@@H](Cc2ccc(O)cc2)C(=O)N[C@@H](CCCNC(N)=O)C(=O)N[C@@H](CCCCN)C(=O)N[C@H](CCCCN)C(=O)N2CCC[C@H]2C(=O)N[C@@H](Cc2ccc(O)cc2)C(=O)N[C@@H](CCCNC(=N)N)C(=O)N[C@@H](CCCNC(N)=O)C(=O)N1)C(=O)O` [TC14003, H-Arg-Arg-Nal-Cys-Tyr-Cit-Lys-DLys-Pro-Tyr-Arg-Cit-Cys-Arg-OH] (H-RR[2Nal]CY[Cit]K[dK]PYR[Cit]CR-OH; disulfide 4-13), the EC50 was 0.0028 µM.

In the case of `N=C(N)NCCC[C@H](NC(=O)[C@@H]1CSSC[C@H](NC(=O)[C@H](Cc2ccc3ccccc3c2)NC(=O)[C@H](CCCNC(=N)N)NC(=O)[C@@H](N)CCCNC(=N)N)C(=O)N[C@@H](Cc2ccc(O)cc2)C(=O)N[C@@H](CCCNC(=N)N)C(=O)N[C@@H](CCCCN)C(=O)N[C@H](CCCCN)C(=O)N2CCC[C@H]2C(=O)N[C@@H](Cc2ccc(O)cc2)C(=O)N[C@@H](CCCNC(N)=O)C(=O)N[C@@H](CCCNC(N)=O)C(=O)N1)C(=O)O` [TC14006, H-Arg-Arg-Nal-Cys-Tyr-Arg-Lys-DLys-Pro-Tyr-Cit-Cit-Cys-Arg-OH] (H-RR[2Nal]CYRK[dK]PY[Cit][Cit]CR-OH; disulfide 4-13), the EC50 was 0.015 µM.

As for `C[C@@H]1NC(=O)[C@H](Cc2ccc(O)cc2)NC(=O)[C@@H](NC(=O)[C@H](Cc2ccc3ccccc3c2)NC(=O)[C@H](CCCNC(=N)N)NC(=O)[C@@H](N)CCCNC(=N)N)CSSC[C@@H](C(=O)N[C@@H](CCCNC(=N)N)C(=O)O)NC(=O)[C@H](CCCNC(N)=O)NC(=O)[C@H](CCCNC(=N)N)NC(=O)[C@H](Cc2ccc(O)cc2)NC(=O)[C@@H]2CCCN2C(=O)[C@@H](CCCCN)NC(=O)[C@H](CCCCN)NC1=O` [TA14005, H-Arg-Arg-Nal-Cys-Tyr-Ala-Lys-DLys-Pro-Tyr-Arg-Cit-Cys-Arg-OH] (H-RR[2Nal]CYAK[dK]PYR[Cit]CR-OH; disulfide 4-13), the EC50 stood at 0.0093 µM.

Regarding `C[C@@H]1NC(=O)[C@@H]2CCCN2C(=O)[C@@H](CCCCN)NC(=O)[C@H](CCCCN)NC(=O)[C@H](CCCNC(=N)N)NC(=O)[C@H](Cc2ccc(O)cc2)NC(=O)[C@@H](NC(=O)[C@H](Cc2ccc3ccccc3c2)NC(=O)[C@H](CCCNC(=N)N)NC(=O)[C@@H](N)CCCNC(=N)N)CSSC[C@@H](C(=O)N[C@@H](CCCNC(=N)N)C(=O)O)NC(=O)[C@H](CCCNC(N)=O)NC(=O)[C@H](CCCNC(=N)N)NC1=O` [TA14009, H-Arg-Arg-Nal-Cys-Tyr-Arg-Lys-DLys-Pro-Ala-Arg-Cit-Cys-Arg-OH] (H-RR[2Nal]CYRK[dK]PAR[Cit]CR-OH; disulfide 4-13), the EC50 stood at 0.017 µM.

With `N=C(N)NCCC[C@H](NC(=O)[C@@H]1CSSC[C@H](NC(=O)[C@H](Cc2ccc3ccccc3c2)NC(=O)[C@H](CCCNC(=N)N)NC(=O)[C@@H](N)CCCNC(=N)N)C(=O)N[C@@H](Cc2ccc(O)cc2)C(=O)N[C@@H](CCCNC(=N)N)C(=O)N[C@@H](CCCNC(N)=O)C(=O)N[C@H](CCCCN)C(=O)N2CCC[C@H]2C(=O)N[C@@H](Cc2ccc(O)cc2)C(=O)N[C@@H](CCCNC(=N)N)C(=O)N[C@@H](CCCNC(N)=O)C(=O)N1)C(=O)O` [TC14004, H-Arg-Arg-Nal-Cys-Tyr-Arg-Cit-DLys-Pro-Tyr-Arg-Cit-Cys-Arg-OH] (H-RR[2Nal]CYR[Cit][dK]PYR[Cit]CR-OH; disulfide 4-13), the EC50 stood at 0.016 µM.

Regarding `N=C(N)NCCC[C@H](NC(=O)[C@@H]1CSSC[C@H](NC(=O)[C@H](Cc2ccc3ccccc3c2)NC(=O)[C@H](CCCNC(=N)N)NC(=O)[C@@H](N)CCCNC(=N)N)C(=O)N[C@@H](Cc2ccc(O)cc2)C(=O)N[C@@H](CCCNC(=N)N)C(=O)N[C@@H](CCCCN)C(=O)N[C@H](CCCCN)C(=O)N2CCC[C@H]2C(=O)N[C@@H](Cc2ccc(O)cc2)C(=O)N[C@@H](CCCNC(=N)N)C(=O)N[C@@H](CCCNC(N)=O)C(=O)N1)C(=O)O` [Compound T140, H-Arg-Arg-Nal-Cys-Tyr-Arg-Lys-DLys-Pro-Tyr-Arg-Cit-Cys-Arg-OH, reference compound] (H-RR[2Nal]CYRK[dK]PYR[Cit]CR-OH; disulfide 4-13), the EC50 came out at 0.0033 µM.

The values are drawn from US8435939B2, “Polypeptide anti-HIV agent containing the same” (priority 2000, dated 2013).
